Results: patent US20240150293A1, “SPIROCYCLOHEXANE DERIVATIVES, PHARMACEUTICAL COMPOSITIONS CONTAINING THEM AND THEIR USES AS ANTI-APOPTOTIC INHIBITORS” (LES LABORATOIRES SERVIER, priority 2021, published 2024)
pKi: −log10 of the molar value.

Target: Mcl-1 protein (UniProtKB Q07820) (Homo sapiens (Human), UniProt Q07820)
Experiment: Inhibition of Mcl-1 by the fluorescence polarisation assay (Example A, Method A)
Format: binding
Conditions: fluorescence polarization assay
Method in brief: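 Protein (5 nM) and fluorescein-tagged peptide tracer (1 nM) incubated with 11-point compound series for 2 h at room temperature in HEPES/NaCl/Tween 20 buffer, pH 7.4, 5% DMSO. Displacement read as decrease in polarisation; IC50 fitted by 4-parameter logistic, converted to Ki (cKi or eKi).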

Chain of Mcl-1 protein (Q07820 whole entry): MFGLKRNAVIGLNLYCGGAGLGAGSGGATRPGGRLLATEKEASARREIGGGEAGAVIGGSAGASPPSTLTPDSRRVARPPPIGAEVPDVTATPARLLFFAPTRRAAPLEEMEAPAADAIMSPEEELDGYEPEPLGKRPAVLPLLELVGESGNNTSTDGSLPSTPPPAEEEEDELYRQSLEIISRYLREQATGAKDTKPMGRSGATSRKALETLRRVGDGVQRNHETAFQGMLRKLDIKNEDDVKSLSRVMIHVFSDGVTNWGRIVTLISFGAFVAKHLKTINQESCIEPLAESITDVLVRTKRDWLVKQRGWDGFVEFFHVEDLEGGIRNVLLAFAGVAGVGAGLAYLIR

| Compound | pKi |
| --- | --- |
| Cn1ccc2cc(C3Cc4ccccc4[C@]34CC[C@@](Nc3cccc(Cl)c3)(C(=O)O)CC4)ccc21 (stereo partly drawn) [Example 274, (1r,4r)-4-(3-chloroanilino)-2′-(1-methyl-1H-indol-5-yl)-2′,3′-dihydrospiro[cyclohexane-1,1′-indene]-4-carboxylic acid] | 5.33 |
| COc1ccc(C2Cc3ccccc3[C@]23CC[C@@](Nc2cccc(Cl)c2)(C(=O)O)CC3)c(C)c1 (single isomer, unassigned) [Example 254, (1r,4r)-4-(3-chloroanilino)-2′-(4-methoxy-2-methylphenyl)-2′,3′-dihydrospiro[cyclohexane-1,1′-indene]-4-carboxylic acid] | 5.66 |
| COc1ccc(C2Cc3ccccc3[C@]23CC[C@@](Nc2cccc(Cl)c2)(C(=O)O)CC3)cc1C (single isomer, unassigned) [Example 243, (1r,4r)-4-(3-chloroanilino)-2′-(4-methoxy-3-methylphenyl)-2′,3′-dihydrospiro[cyclohexane-1,1′-indene]-4-carboxylic acid] | 6.56 |
| O=C(O)[C@]1(Nc2cccc(Br)c2)CC[C@]2(CC1)C(Br)=Cc1ccccc12 [Example 78, (1s,4s)-2′-bromo-4-(3-bromoanilino)spiro[cyclohexane-1,1′-indene]-4-carboxylic acid] | 7.06 |
| COc1ccc(C2Cc3ccccc3[C@]23CC[C@@](Nc2ccccc2)(C(=O)O)CC3)c(C)c1 (single isomer, unassigned) [Example 257, (1r,4r)-4-anilino-2′-(4-methoxy-2-methylphenyl)-2′,3′-dihydrospiro[cyclohexane-1,1′-indene]-4-carboxylic acid] | 4.39 |
| CN1c2ccc(Br)cc2[C@]2(CC[C@](Nc3cccc(Br)c3)(C(=O)O)CC2)C1=O [Example 6, (1r,4r)-5′-bromo-4-(3-bromoanilino)-1′-methyl-2′-oxo-1′,2′-dihydrospiro[cyclohexane-1,3′-indole]-4-carboxylic acid] | 5.00 |
| O=C(O)[C@]1(Nc2cccc(Cl)c2)CC[C@]2(CC1)C(Cc1ccccc1)=Cc1ccccc12 [Example 168, (1r,4r)-2′-benzyl-4-(3-chloroanilino)spiro[cyclohexane-1,1′-indene]-4-carboxylic acid] | 5.78 |
| COCCOc1cccc(N[C@]2(C(=O)O)CC[C@@]3(CC2)C(Br)=Cc2ccccc23)n1 [Example 80, (1s,4s)-2′-bromo-4-{[6-(2-methoxyethoxy)pyridin-2-yl]amino}spiro[cyclohexane-1,1′-indene]-4-carboxylic acid] | 4.93 |
| CN1c2ccc(/C=C/Cc3ccccc3)cc2[C@]2(CC[C@](Nc3cccc(Br)c3)(C(=O)O)CC2)C1=O [Example 19, (1r,4r)-4-(3-bromoanilino)-1′-methyl-2′-oxo-5′-[(1E)-3-phenylprop-1-en-1-yl]-1′,2′-dihydrospiro[cyclohexane-1,3′-indole]-4-carboxylic acid] | 4.68 |
| CN1CC2(CCC(Nc3cccc(Br)c3)(C(=O)O)CC2)c2ccccc21 (stereo not drawn) [Example 4, 4-(3-bromoanilino)-1′-methyl-1′,2′-dihydrospiro[cyclohexane-1,3′-indole]-4-carboxylic acid] | 5.23 |
| C[C@H]1c2ccccc2[C@]2(CC[C@@](Nc3cccc(Cl)c3)(C(=O)O)CC2)[C@H]1C (single isomer, unassigned) [Example 208, (1r,2′R*,3'S*,4r)-4-(3-chloroanilino)-2′,3′-dimethyl-2′,3′-dihydrospiro[cyclohexane-1,1′-indene]-4-carboxylic acid] | 4.50 |
| COc1ccc(C2=Cc3ccccc3[C@]23CC[C@](Nc2cccc(Cl)c2)(C(=O)O)CC3)cc1Cl [Example 226, (1r,4r)-4-(3-chloroanilino)-2′-(3-chloro-4-methoxyphenyl)spiro[cyclohexane-1,1′-indene]-4-carboxylic acid] | 4.63 |
| O=C(O)C1(Nc2cccc(Br)c2)CCC2(CC1)C(c1cc(Cl)cc(Cl)c1)=Cc1ccccc12 (single isomer, unassigned) [Example 236, 4-(3-bromoanilino)-2′-(3,5-dichlorophenyl)spiro[cyclohexane-1,1′-indene]-4-carboxylic acid] | 4.57 |
| CN1c2ccc(/C=C/c3ccccc3)cc2[C@]2(CC[C@](Nc3cccc(Br)c3)(C(=O)O)CC2)C1=O [Example 9, (1r,4r)-4-(3-bromoanilino)-1′-methyl-2′-oxo-5′-[(E)-2-phenylethenyl]-1′,2′-dihydrospiro[cyclohexane-1,3′-indole]-4-carboxylic acid] | 5.32 |
| O=C(O)[C@]1(Nc2cccc(Cl)c2)CC[C@@]2(CC1)c1ccccc1CC2[C@H]1C[C@@H]1COc1ccnc2ccsc12 (single isomer, unassigned) [Example 104, (1r,4r)-4-(3-chloroanilino)-2′-[(1R*,2S*)-2-{[(thieno[3,2-b]pyridin-7-yl)oxy]methyl}cyclopropyl]-2′,3′-dihydrospiro[cyclohexane-1,1′-indene]-4-carboxylic acid] | 5.87 |
| O=C(O)C1(Nc2cccc(Cl)c2)CCC2(CC1)c1ccccc1-c1ccccc12 [Example 118, 4-(3-chloroanilino)spiro[cyclohexane-1,9′-fluorene]-4-carboxylic acid] | 5.40 |
| O=C(O)[C@]1(Nc2cccc(Cl)c2)CC[C@@]2(CC1)c1ccccc1C[C@@H]2c1ccc2occc2c1 [Example 282, (1r,2′R,4R)-2′-(1-benzofuran-5-yl)-4-(3-chloroanilino)-2′,3′-dihydrospiro[cyclohexane-1,1′-indene]-4-carboxylic acid] | 5.29 |
| O=C(O)[C@]1(Nc2cccc(Cl)c2)CC[C@]2(CC1)C(c1ccc3ccoc3c1)=Cc1ccccc12 [Example 265, (1s,4s)-2′-(1-benzofuran-6-yl)-4-(3-chloroanilino)spiro[cyclohexane-1,1′-indene]-4-carboxylic acid] | 5.96 |

Other lines, results leading:

| pKi | Compound |
| --- | --- |
| 5.95 | COc1cc(Cl)cc(C2Cc3ccccc3[C@]23CC[C@@](Nc2cccc(Cl)c2)(C(=O)O)CC3)c1 (single isomer, unassigned) [Example 347, (1r,4r)-4-(3-chloroanilino)-2′-(3-chloro-5-methoxyphenyl)-2′,3′-dihydrospiro[cyclohexane-1,1′-indene]-4-carboxylic acid] |
| 6.49 | CC(C)c1cncnc1OCCCC1Cc2ccccc2[C@]12CC[C@@](Nc1cccc(Cl)c1)(C(=O)O)CC2 (mixture of isomers) [Example 461, (1r,4r)-4-(3-chloroanilino)-2′-(3-{[5-(propan-2-yl)pyrimidin-4-yl]oxy}propyl)-2′,3′-dihydrospiro[cyclohexane-1,1′-indene]-4-carboxylic acid] |
| 5.76 | O=C(O)[C@]1(Nc2cccc(Cl)c2)CC[C@]2(CC1)C(c1cccc(O)c1)=Cc1ccccc12 [Example 304, (1s,4s)-4-(3-chloroanilino)-2′-(3-hydroxyphenyl)spiro[cyclohexane-1,1′-indene]-4-carboxylic acid] |
| 6.96 | Cc1c[nH]c2nccc(OCCCC3Cc4ccccc4[C@]34CC[C@@](Nc3cccc(Cl)c3)(C(=O)O)CC4)c12 (stereo partly drawn) [Example 458, (1r,4r)-4-(3-chloroanilino)-2′-{3-[(3-methyl-1H-pyrrolo[2,3-b]pyridin-4-yl)oxy]propyl}-2′,3′-dihydrospiro[cyclohexane-1,1′-indene]-4-carboxylic acid] |
| 7.41 | O=C(O)[C@]1(Nc2cccc(Cl)c2)CC[C@@]2(CC1)c1ccccc1CC2CCCOc1ccncc1F (stereo partly drawn) [Example 432, (1r,4r)-4-(3-chloroanilino)-2′-{3-[(3-fluoropyridin-4-yl)oxy]propyl}-2′,3′-dihydrospiro[cyclohexane-1,1′-indene]-4-carboxylic acid] |
| 6.34 | O=C(O)[C@]1(Nc2cccc(Cl)c2)CC[C@@]2(CC1)c1ccccc1CC2c1ccc(Oc2ccncc2)cc1 (single isomer, unassigned) [Example 364, (1r,4r)-4-(3-chloroanilino)-2′-{4-[(pyridin-4-yl)oxy]phenyl}-2′,3′-dihydrospiro[cyclohexane-1,1′-indene]-4-carboxylic acid] |
| 6.49 | Cc1cnccc1CCCOC1Cc2ccccc2[C@]12CC[C@@](Nc1cccc(Cl)c1)(C(=O)O)CC2 (stereo partly drawn) [Example 401, (1s,4s)-4-(3-chloroanilino)-2′-[3-(3-methylpyridin-4-yl)propoxy]-2′,3′-dihydrospiro[cyclohexane-1,1′-indene]-4-carboxylic acid] |
| 7.03 | O=C(O)[C@]1(Nc2cccc(Cl)c2)CC[C@]2(CC1)C(CC(COc1ccnc3ccsc13)COc1ccnc3ccsc13)=Cc1ccccc12 [Example 492, (1r,4r)-4-(3-chloroanilino)-2′-(3-[(thieno[3,2-b]pyridin-7-yl)oxy]-2-{[(thieno[3,2-b]pyridin-7-yl)oxy]methyl}propyl)spiro[cyclohexane-1,1′-indene]-4-carboxylic acid] |
| 4.71 | O=C(O)[C@]1(Nc2cccc(Cl)c2)CC[C@@]2(CC1)c1ccccc1C[C@@H]2c1cccc(Cc2ccccc2)c1 [Example 326, (1r,2′R,4R)-2′-(3-benzylphenyl)-4-(3-chloroanilino)-2′,3′-dihydrospiro[cyclohexane-1,1′-indene]-4-carboxylic acid] |
| 6.90 | O=C(O)[C@]1(Nc2cccc(Cl)c2)CC[C@@]2(CC1)c1ccccc1CC2CCCOc1ccnc2ccoc12 (stereo partly drawn) [Example 447, (1r,4r)-4-(3-chloroanilino)-2′-{3-[(furo[3,2-b]pyridin-7-yl)oxy]propyl}-2′,3′-dihydrospiro[cyclohexane-1,1′-indene]-4-carboxylic acid] |
| 7.16 | Cc1cncnc1OCCCC1Cc2ccccc2[C@]12CC[C@@](Nc1cccc(Cl)c1)(C(=O)O)CC2 (stereo partly drawn) [Example 441, (1r,4r)-4-(3-chloroanilino)-2′-{3-[(5-methylpyrimidin-4-yl)oxy]propyl}-2′,3′-dihydrospiro[cyclohexane-1,1′-indene]-4-carboxylic acid] |
| 5.88 | O=C(O)[C@]1(Nc2cccc(Cl)c2)CC[C@@]2(CC1)c1ccccc1CC2CCCS(=O)(=O)c1ccccc1 (stereo partly drawn) [Example 398, (1r,4r)-2′-[3-(benzenesulfonyl)propyl]-4-(3-chloroanilino)-2′,3′-dihydrospiro[cyclohexane-1,1′-indene]-4-carboxylic acid] |
